This is an account of results in US7829567B2, “Imino-indeno[1,2-c] quinoline derivatives, their preparation processes, and pharmaceutical compositions comprising the same” (Kaohsiung Medical University, priority 2007, dated 2010).

Common to all, as to assay type: cell-based
Test [1] concerns human cervical epithelioid carcinoma (HeLa). Briefly: In vitro anticancer assay (MTT), HeLa. The settings on record: HeLa cells, 48 hrs, mean ± spread, read-out: Anti-proliferative evaluation IC50, HeLa. The procedure:
(§1) The resultant tetrazolium salt was then dissolved by the addition of dimethyl sulfoxide. Color was measured spectrophotometrically in a microtiter plate reader at 570 nm and used as a relative measure of viable cell number. The number of viable cells after treatment was compared to solvent and untreated control cells and used to determine the percent of control growth as (Abtreated/Abcontrol)×100, where Ab represents the mean absorbance (n=3). […] D. Heo et al. […] (+)-camptothecin (CPT) and doxorubicin hydrochloride (Dox) were used for comparison with the compounds according to this invention.

For test [2], the system named is human renal clear cell carcinoma. The test can be described thus: In vitro anticancer assay (MTT), RCC 768-O. Conditions: RCC 768-O cells, 48 hrs, mean ± spread, read-out: Anti-proliferative evaluation IC50, RCC 768-O. The procedure:
as §1

Test [3] has as its system hepatocellular carcinoma (SKHep1). Briefly: In vitro anticancer assay (MTT), SKHep1. The settings on record: 48 hrs, mean ± spread, read-out: Anti-proliferative evaluation IC50, SKHep1. How it is done: as §1
The subject of test [4] is esophageal carcinoma (CE81T). Briefly: In vitro anticancer assay (MTT), CE81T. The settings on record: CE81T cells, 48 hrs, mean ± spread, read-out: Anti-proliferative evaluation IC50, CE81T. The procedure:
as §1

Test [5] deals with human stomach adenocarcinoma (AGS). The test can be described thus: In vitro anticancer assay (MTT), AGS. The settings on record: AGS cells, 48 hrs, mean ± spread, read-out: Anti-proliferative evaluation IC50, AGS. How it is done: as §1
The subject of test [6] is oral squamous cell carcinoma (SAS). The test can be described thus: In vitro anticancer assay (MTT), SAS. The settings on record: SAS cells, 48 hrs, mean ± spread, read-out: Anti-proliferative evaluation IC50, SAS. The procedure:
as §1

Setting [7] is: Homo sapiens, SK-HEP1, SKHep1 cells.

Read-outs that look alike come from different tables or passages of the source.

Broadly, the IC50 is the concentration at which inhibition is half-maximal. As to `CC[C@@]1(O)C(=O)OCc2c1cc1n(c2=O)Cc2cc3ccccc3nc2-1` [CPT, (+)-camptothecin, reference compound], the IC50 in test [1] (Homo sapiens) was 0.3 ± 0.1 µM; in test [2] (Homo sapiens), 2.8 ± 0.7 µM; in test [3] (setting [7]), 0.2 ± 0.1 µM; in test [4], 2.8 ± 1.5 µM; in test [5] (Homo sapiens), over 30 µM; in test [6], 6 ± 2.7 µM.

For the molecule `O=C1c2ccccc2-c2c(N3CCNCC3)nc3ccccc3c21` [Compound 5aa], the IC50 in test [1] stood at 1.1 ± 0.6 µM; in test [2] it was 7.7 ± 0.4 µM; in test [3] (SKHep1 cells), 1.7 ± 1.1 µM; in test [4], 11.1 ± 8.5 µM; in test [5], 6.5 ± 2.6 µM; in test [6], 10.7 ± 0.9 µM.

Take `COc1ccc2c(c1)C(=O)c1c-2c(N2CCN(C(=O)CCNCCO)CC2)nc2ccccc12` [Compound 5aaa]: the IC50 in test [1] is 3.1 ± 1.2 µM; in test [2] it was 2 ± 1.4 µM; in test [3] (SKHep1 cells), 4.5 ± 1.1 µM; in test [4] it was 7.1 ± 0.9 µM; in test [5], 3.7 ± 0.5 µM; in test [6], 9.1 ± 1.6 µM.

As for `CN(C)CCCNc1nc2ccccc2c2c1-c1ccccc1C2=O` [Compound 5b], the half-inhibitory concentration (IC50) in test [1] is 4 ± 0.9 µM; in test [2], 10 ± 0.8 µM; in test [3] (SKHep1 cells), 4.6 ± 1.5 µM; in test [4] it was over 30 µM; in test [5], 9.8 ± 4 µM; in test [6], 6.9 ± 0.5 µM.

On to `COc1ccc2c(c1)C(=O)c1c-2c(N2CCN(C(=O)CCNCCN(C)C)CC2)nc2ccccc12` [Compound 5bbb, 6-{4-{3-[2-(Dimethylamino)ethylamino]propanoyl}piperazin-1-yl}-9-methoxy-11H-indeno[1,2-c]quinolin-11-one], for which the IC50 turned out to be 4.8 ± 1.5 µM in test [1] (Homo sapiens); 7 ± 1.3 µM in test [2] (Homo sapiens); 5.1 ± 1.5 µM in test [3] (setting [7]); 7.4 ± 2 µM in test [4]; 4.9 ± 1 µM in test [5] (Homo sapiens); 8.8 ± 1 µM in test [6].

In the case of `O=C1c2ccccc2-c2c(NCCNCCO)nc3ccccc3c21` [Compound 5c, 6-[2-(2-Hydroxyethylamino)ethylamino]-11H-indeno[1,2-c]quinolin-11-one], the IC50 in test [1] (Homo sapiens) was 1 ± 0.3 µM; in test [2] (Homo sapiens), 8.3 ± 0.6 µM; in test [3] (setting [7]), 4.3 ± 1.5 µM; in test [4] it was over 30 µM; in test [5] (Homo sapiens) it was 7.9 ± 1.7 µM; in test [6], 7.3 ± 0.6 µM.

As to `COc1ccc2c(c1)C(=O)c1c-2c(N2CCN(C(=O)CCNCCCN(C)C)CC2)nc2ccccc12` [Compound 5ccc], the IC50 in test [1] is 5.4 ± 1.3 µM; in test [2], 5.9 ± 0.9 µM; in test [3] (SKHep1 cells) it was 8.6 ± 0.7 µM; in test [4], 9.4 ± 0.6 µM; in test [5] it was 2.8 ± 1.3 µM; in test [6], 13.5 ± 2.2 µM.

As for `COc1cc2c(cc1OC)-c1c(N3CCNCC3)nc3ccccc3c1C2=O` [Compound 5dd, 8,9-Dimethoxy-6-(piperazin-1-yl)-11H-indeno[1,2-c]quinolin-11-one], the IC50 is 7 ± 1.2 µM in test [1] (Homo sapiens); 7.1 ± 0.6 µM in test [2] (Homo sapiens); 6.6 ± 3.2 µM in test [3] (setting [7]); 8.3 ± 0.3 µM in test [4]; 7.4 ± 2.1 µM in test [5] (Homo sapiens); 11.7 ± 1.6 µM in test [6].

Consider `COc1ccc2c(c1)C(=NOCCN1CCCC1)c1c-2cnc2ccccc12` [Compound 6aa, 9-methoxy-11H-indeno[1,2-c]quinolin-11-one O-2-(pyrrolidin-1-yl)ethyl oxime], for which the IC50 in test [1] (Homo sapiens) was 0.4 ± 0.02 µM; in test [2] (Homo sapiens) it was 5.7 ± 1 µM; in test [3] (setting [7]) it was 1.5 ± 0.3 µM; in test [5] (Homo sapiens) it was over 30 µM; in test [6] it was 1.2 ± 0.2 µM.

`COc1ccc2c(c1)C(=NOCCN1CCCC1)c1c-2c(O)nc2ccccc12` [Compound 6bb, 6-hydroxy-9-methoxy-11H-indeno[1,2-c]quinolin-11-one O-2-(pyrrolidin-1-yl)ethyl oxime]: the IC50 in test [1] (Homo sapiens) was 0.2 ± 0.02 µM; in test [2] (Homo sapiens), 3.7 ± 0.8 µM; in test [3] (setting [7]) it was 1.2 ± 0.3 µM; in test [5] (Homo sapiens) it was 10.4 ± 3 µM; in test [6], 0.8 ± 0.1 µM.
